Entries after “also recorded” stand apart in the source; their conditions may differ.
System: C. elegans
Test: Antimycin A treatment, adult lifespan analysis
Assay type: in vivo
Description: During a systematic screen of a C. elegans Chromosome I RNAi library it was discovered that animals grown on bacteria expressing atp-3 double-stranded RNA lived much longer than normal (Fraser et al., Nature 408:325 (2000)). Lifespan analysis was conducted at 25° C. as described previously (Kenyon et al., Nature 366:461 (1993)). The pre-fertile period of adulthood was used as t=0 for lifespan analysis. Strains were grown at 20° C. for at least two generations before use in lifespan analysis. Statview 5.0.1 (SAS) software was used for statistical analysis and to determine means and percentiles. In all cases, p values were calculated using the logrank (Mantel-Cox) method.
OP-50 bacteria were spread onto NG plates and allowed to grow for two days at room temperature. 50 μl of 0.01 M Antimycin A (Sigma) dissolved in 100% ethanol was dropped onto bacterial lawn and allowed to dry overnight in a fume hood at room temperature. […] Animals were transferred to new Antimycin A plates every 4 days. Control worms (ethanol only) were handled in the same manner) (Table 1).

[1] = fer-15(b26), fem-1(hc17) + 0.1 μM Antimycin A, 25° C.

Question: Which “effect on lifespan (words)” value (C. elegans, from hatching through adulthood or regimen not stated, listed as antimycin) does the source give for Antimycin A here?
Answer: Its value is “substantially increased lifespan; also recorded: increases lifespan”.

Question: What about the “effect on lifespan (words)” value (C. elegans, from hatching through adulthood or regimen not stated, listed as antimycin A) of the same substance?
Answer: The value was “increased lifespan”.

Question: And the “effect on lifespan (words)” value (administration to adult worms)?
Answer: The value was “increased lifespan”.

Question: And the mean lifespan (animals grown in the presence of 0.1 micromolar antimycin in ethanol)?
Answer: Its mean lifespan is 21 days.

Question: What about the “75th percentile adult lifespan” value [1] of the same substance?
Answer: The value was 25 days.

Question: What about the “Mean ± s.e.m. adult lifespan” value [1] of the same substance?
Answer: Its value is 20.4 ± 0.7 days.

From patent US7794957B2, “Eukaryotic genes involved in adult lifespan regulation” (priority 2001, dated 2010)
